Experimental data as given in patent US20250360160A1, “NEW MEDICAL USE OF TAFOXIPARIN” (DILAFOR AB, priority 2022, published 2025).

Tested on: term pregnant, nulliparous women with an unripe cervix
Experiment: Clinical phase II trial PPL17 (Parts A and B), subcutaneous tafoxiparin vs placebo
Type: in vivo, human
Details: for Labor induced with PGE-1, percent of subjects: placebo 10.2%; for Fetal distress as indication for operative delivery (ODFD), percent of patients: placebo 22.7%; for Percent of patients with operative delivery / proportion of women needing instrumental delivery: placebo 45.5%; for Labor induced with oxytocin, percent of subjects / proportion of women reaching spontaneous onset of labor with uncomplicated delivery: placebo 54.5%; for Labor induced with amniotomy, percent of subjects: placebo 56.8%; for Labor induction with Balloon catheter, percent of subjects: placebo 58.0%; for Labor induced, percent of subjects: placebo 70.5%; for number of women needing instrumental delivery: spontaneous onset of labor; for proportion reaching partus by vaginal delivery with no need for instrumental delivery nor caesarian section: placebo 48%; for proportion reaching partus by vaginal delivery with no need for instrumental delivery nor caesarian section / proportion of women needing instrumental delivery or caesarian section to reach partus: FIG. 5; for proportion of women needing instrumental delivery or caesarian section to reach partus: placebo 52%; for proportion of women needing instrumental delivery: vaginal mode of partus, FIG. 4; for number of subjects (women) that reach spontaneous onset of labor / percent of subjects (women) that reach spontaneous onset of labor: n=37
Procedure: A clinical phase II trial is performed as a randomized, double-blind, placebo-controlled, parallel-group proof of concept study (Part A) with a conditional dose finding follow up study (Part B) to evaluate the efficacy, safety, tolerability and dose response of subcutaneously administered tafoxiparin as a supplement to induction therapy in term pregnant, nulliparous women with an unripe cervix. The study is performed in Sweden and Finland (PPL17), and an EMA (European Medicines Agency) description of the study can be found on the EU Clinical Trials Register web (www.clinicaltrialsregister.eu/ctr-search/search?query=PPL17).
A total of 170 term pregnant women are randomized to receive either 300 mg of tafoxiparin, or corresponding placebo (vehicle), administered subcutaneously every 24±3 hours and up to a total of 7 doses, or until partus (Part A).
In the dose finding follow up study (Part B), a total of 164 term pregnant women are randomized to receive either 75 or 150 mg of tafoxiparin administered subcutaneously every 24±3 hours […] and up to a total of 7 doses, or until partus.
To assess the efficacy of tafoxiparin on cervical ripening/cervical ripening rate, during and up to the first seven days of treatment, measured by Bishop score. All women must be examined to check the cervical state before enrollment.
Time from start of treatment to increase in Bishop score of ≥2 points or spontaneous onset of labor, whichever comes first. Time from start of treatment to increase in Bishop score of ≥3 points or spontaneous onset of labor, whichever comes first. Time from start of treatment to increase in Bishop score of ≥4 points or spontaneous onset of labor, whichever comes first.
Cervical ripening as measured by change from baseline to end of treatment in Bishop Score. Time from onset of labor to partus, where onset of labor is defined as last record of 4 cm cervical dilatation visualized in the partogram and progress of labor, or last record of 4 cm of cervical dilatation in combination with amniotomy and intravenous administration oxytocin.
Proportion of women with spontaneous onset of labor (Response group I).
Tafoxiparin/Placebo is supplied by Dilafor AB to the site as kits designed to constitute 300 mg of tafoxiparin or placebo for daily administration. Apart from the active substance, each ml of study drug will constitute 0.015 M phosphate buffer. The study medication kit for each patient will contain 8 doses consisting of 2 vials containing a minimum extractable volume of 1.6 ml of 150 mg/ml of tafoxiparin or placebo. One dose is a reserve dose in case a dose is rendered unusable. The investigational product should be administered subcutaneously every 24±3hours by the site staff for up to 7 doses, or until partus. At each dosing time 1.0 ml of the drug will be extracted from each of the 2 vials and injected as separate s.c. injections in the abdominal or hip region.
Tafoxiparin/Placebo is supplied by Dilafor AB to the site as kits designed to constitute 75 or 150 mg of tafoxiparin for daily administration. Apart from the active substance, each ml of study drug will constitute 0.015 M phosphate buffer. The study medication kit for each patient will contain 8 doses consisting of 2 vials for each injection occasion containing a minimum extractable volume of 1.6 ml of 150 mg/ml of tafoxiparin or placebo. For subjects receiving 75 mg of tafoxiparin, one vial will contain active substance and one containing placebo. For subjects receiving 150 mg of tafoxiparin, both vials will contain active substance. One dose is a reserve dose in case a dose is rendered unusable. The investigational product should be administered subcutaneously every 24±3 hours by the site staff for up to 7 doses, or until partus. At each dosing time, 0.5 ml of the drug will be extracted from each of the 2 vials and injected as separate s.c. injections in the abdominal or hip region. […]

[1] = 150 mg, n = 85, listed as tafoxiparin
[2] = 150 mg, women with spontaneous onset of labor, of 36
[3] = 300 mg, n = 91, listed as tafoxiparin
[4] = 300 mg, women with spontaneous onset of labor, of 37

Substance: tafoxiparin
- Labor induced with PGE-1, percent of subjects [1]: 8.2%
- Fetal distress as indication for operative delivery (ODFD), percent of patients (150 mg, n = 85): 23.5%
- Percent of patients with operative delivery (150 mg, n = 85): 48.2%
- Labor induced with oxytocin, percent of subjects (150 mg, n = 85): (44.7%)
- Labor induced with oxytocin, percent of subjects [1]: 44.7%
- Labor induced with amniotomy, percent of subjects (150 mg, n = 85): (45.9%)
- Labor induced with amniotomy, percent of subjects [1]: 45.9%
- Labor induction with Balloon catheter, percent of subjects (150 mg, n = 85): (43.5%)
- Labor induction with Balloon catheter, percent of subjects [1]: 43.5%
- Labor induced, percent of subjects (150 mg, n = 85): (56.5%)
- Labor induced, percent of subjects [1]: 56.5%
- number of women reaching spontaneous onset of labor with uncomplicated delivery (150 mg, of 32 women): 23 women
- proportion of women reaching spontaneous onset of labor with uncomplicated delivery (150 mg, of 32 women): 71.9%
- number of women needing instrumental delivery or caesarian section to reach partus (150 mg, of 36 women): 13 women
- number reaching partus by vaginal delivery with no need for instrumental delivery nor caesarian section (150 mg, of 36 women): 23 women
- number of women achieving spontaneous onset of labor (150 mg, of 85 women): 36 women
- number of women needing instrumental delivery (150 mg, of 32 women): 9 women
- proportion reaching partus by vaginal delivery with no need for instrumental delivery nor caesarian section [2]: 63.9%
- proportion of women needing instrumental delivery or caesarian section to reach partus [2]: 36.1%
- proportion of women needing instrumental delivery (150 mg, women with spontaneous onset of labor, of 32, p 0.422): 28.1%
- time point of spontaneous onset of labor (change of Bishop score) (300 mg and 150 mg vs 75 mg and placebo, FIG. 3): achieved spontaneous onset of labor at an earlier time point
- proportion of women achieving spontaneous onset of labor (300 mg daily s.c., of 90 women, p=0.089, placebo 28.7%, FIG. 1): 41.1%
- number of subjects (women) that reach spontaneous onset of labor (300 mg, Study day 1): 2
- percent of subjects (women) that reach spontaneous onset of labor (300 mg, Study day 1): (5%)
- number of subjects (women) that reach spontaneous onset of labor (300 mg, Study day 2): 11
- percent of subjects (women) that reach spontaneous onset of labor (300 mg, Study day 2): (30%)
- number of subjects (women) that reach spontaneous onset of labor (300 mg, Study day 3): 18
- percent of subjects (women) that reach spontaneous onset of labor (300 mg, Study day 3): (49%)
- number of subjects (women) that reach spontaneous onset of labor (300 mg, Study day 4): 23
- percent of subjects (women) that reach spontaneous onset of labor (300 mg, Study day 4): (62%)
- number of subjects (women) that reach spontaneous onset of labor (300 mg, Study day 5): 30
- percent of subjects (women) that reach spontaneous onset of labor (300 mg, Study day 5): (81%)
- number of subjects (women) that reach spontaneous onset of labor (300 mg, Study day 6): 34
- percent of subjects (women) that reach spontaneous onset of labor (300 mg, Study day 6): (92%)
- number of subjects (women) that reach spontaneous onset of labor (300 mg, Study day 7): 37
- percent of subjects (women) that reach spontaneous onset of labor (300 mg, Study day 7): (100%)
- Fetal distress as indication for operative delivery (ODFD), number of patients (300 mg, n = 91): 11
- Labor induced with PGE-1, number of subjects (300 mg, n = 91): 5
- Labor induced with amniotomy, number of subjects (300 mg, n = 91): 50
- Labor induced with oxytocin, number of subjects (300 mg, n = 91): 45
- Labor induction with Balloon catheter, number of subjects (300 mg, n = 91): 42
- Labor induced, number of subjects (300 mg, n = 91, onset of labor with intervention): 53
- Labor induced with PGE-1, percent of subjects (300 mg, n = 91): (5.5%)
- Labor induced with PGE-1, percent of subjects [3]: 5.5%
- Fetal distress as indication for operative delivery (ODFD), percent of patients (300 mg, n = 91): 12.1%
- Percent of patients with operative delivery (300 mg, n = 91): 35.2%
- Labor induced with oxytocin, percent of subjects (300 mg, n = 91): (49.5%)
- Labor induced with oxytocin, percent of subjects [3]: 49.5%
- Labor induced with amniotomy, percent of subjects (300 mg, n = 91): (54.9%)
- Labor induced with amniotomy, percent of subjects [3]: 54.9%
- Labor induction with Balloon catheter, percent of subjects (300 mg, n = 91): (46.2%)
- Labor induction with Balloon catheter, percent of subjects [3]: 46.2%
- Labor induced, percent of subjects (300 mg, n = 91): (58.2%)
- Labor induced, percent of subjects [3]: 58.2%
- number of women reaching spontaneous onset of labor with uncomplicated delivery (300 mg, of 33 women): 27 women
- proportion of women reaching spontaneous onset of labor with uncomplicated delivery (300 mg, of 33 women): 81.8%
- number of women needing instrumental delivery or caesarian section to reach partus (300 mg, of 37 women): 10 women
- number reaching partus by vaginal delivery with no need for instrumental delivery nor caesarian section (300 mg, of 37 women): 27 women
- number of women achieving spontaneous onset of labor (300 mg, of 90 women): 37 women
- number of women needing instrumental delivery (300 mg, of 33 women): 6 women
- proportion reaching partus by vaginal delivery with no need for instrumental delivery nor caesarian section [4]: 73%
- proportion of women needing instrumental delivery or caesarian section to reach partus [4]: 27%
- proportion of women needing instrumental delivery (300 mg, women with spontaneous onset of labor, of 33, p=0.048): 18.2%
- achieving spontaneous onset of labor (conclusion) (all three doses 300 mg, 150 mg and 75 mg): effective for achieving spontaneous onset of labor
- mode of partus (conclusion) (all three doses 300 mg, 150 mg and 75 mg, compared to placebo): effective for a person to reach partus by vaginal delivery and with less need for instrumental delivery or caesarian section
- need for instrumental delivery (conclusion) (all three doses (300 mg, 150 mg and 75 mg), women with spontaneous onset of labor, vs placebo): effective in reducing the need for instrumental delivery
- need for intervention to achieve onset of labor (conclusion) (all three doses, compared to placebo): reduced the need for intervention in order to achieve onset of labor
- effect on cervical ripening (doses 300 mg and 150 mg, FIG. 3): beneficial effect on cervical ripening
- estimated cervical ripening rate measured by Bishop score (first 7 days of treatment, all three doses (300 mg, 150 mg and 75 mg) compared to placebo, FIG. 6): higher
- labor time up to vaginal delivery (partus) (women with spontaneous onset of labor, 300 mg (p=0.070), 150 mg (p 0.654), 75 mg (p 0.114) vs placebo, FIG. 2): shorter labor time up to vaginal delivery (partus) compared to placebo
